Measured values published in patent publication US8901105B2, “Prodrug derivatives of (E)-N-methyl-N-((3-M ethylbenzofuran-2-yl)methyl)-3-(7-oxo-5,6,7,8-tetrahydro-1,8-naphthyridin-3-yl)acrylamide” (Affinium Pharmaceuticals, Inc., priority 2012, dated 2014).
Converted amounts (≈) assume the structure as drawn. Read-outs that look alike come from different tables or passages of the source.

Experiments:
[1] = Aqueous solubility of salts at 25° C.; type: physicochemical; details: water, water, water, 25° C., mg free acid equivalent/mL; for Solubility in Water: dipotassium salt
Streptococcus pyogenes = experiment: Broth microdilution MIC; type: cell-based
Procedure: (§1) Bacterial Isolates. Organisms tested in this study are listed in Table P. Clinical isolates consisted of 5 Staphylococcus aureus (MSSA), 3 Staphylococcus aureus (HA-MRSA), 2 Staphylococcus aureus (CA-MRSA), 2 Enterococcus faecalis (VSE), 2 Streptococcus pyogenes, and 2 Escherichia coli (susceptible to most antibiotics). S. aureus ATCC 29213, E. faecalis ATCC 29212, S. pneumoniae ATCC 49619, and E. coli ATCC 25922 were tested for the purposes of quality control.
(§2) Minimal Inhibitory Concentrations (MIC) values against the selected isolates were determined using the reference broth microdilution method according to the Clinical Laboratory Standards Institute (CLSI) guidelines.
(§3) The MIC was read and recorded as the lowest concentration of drug that inhibited visible growth of the organism.

Enterococcus faecalis = experiment: Broth microdilution MIC; type: cell-based
Procedure: as §1, §2, §3

Staphylococcus aureus = experiment: Broth microdilution MIC; type: cell-based; details: Staphylococcus aureus
Procedure: as §1, §2, §3

Escherichia coli = experiment: Broth microdilution MIC; type: cell-based
Procedure: as §1, §2, §3

Streptococcus pneumoniae = experiment: Broth microdilution MIC; type: cell-based
Procedure: as §1, §2, §3

[2] = Solid-state stability (HPLC % area after storage); type: physicochemical; details: 4 weeks
Procedure: Various compounds disclosed herein have been placed on long-term solid-state stability protocol. The compounds were stored in glass vials closed with PTFE lined caps at 30° C./65% RH, 40° C./75% RH, 50° C. and 60° C. (ambient humidity). The results of the study after 4 weeks are shown in Table B1 and after 3 months in Table B2. Appearance and purity analysis were conducted using HPLC and XPRD. The HPLC analyses were conducted using standard equipment such as a Agilent HP1100 HPLC (Station ID: LZPES HPLC 04) with YMC-Pack ODS-AQ sub 3 μm, 150×4.6 mm

[3] = Streptococcus pyogenes, S. pyogenes 6179, read-out: MIC
[4] = ATCC29212, E. faecalis ATCC 29212, read-out: MIC
[5] = E. faecalis 4158, VSE, read-out: MIC
[6] = E. faecalis 4212, VSE, read-out: MIC
[7] = ATCC29213, S. aureus ATCC 29213, read-out: MIC
[8] = MRSA, S. aureus 3083, HA-MRSA, read-out: MIC
[9] = MRSA, S. aureus 3086, HA-MRSA, read-out: MIC
[10] = MRSA, S. aureus 3265, HA-MRSA, read-out: MIC
[11] = MSSA, S. aureus 3104, MSSA, read-out: MIC
[12] = MSSA, S. aureus 3107, MSSA, read-out: MIC
[13] = MSSA, S. aureus 3245, MSSA, read-out: MIC
[14] = MSSA, S. aureus 3250, MSSA, read-out: MIC
[15] = MSSA, S. aureus 3856, MSSA, read-out: MIC
[16] = S. aureus 2168, CAMRSA, read-out: MIC
[17] = S. aureus 2294, CAMRSA, read-out: MIC
[18] = Escherichia coli, ATCC25922, E. coli ATCC 25922, read-out: MIC
[19] = Escherichia coli, E. coli 2214, read-out: MIC
[20] = Escherichia coli, E. coli 5255, read-out: MIC
[21] = ATCC49619, S. pneumoniae ATCC 49619, read-out: MIC

MIC (Streptococcus pyogenes; S. pyogenes 6528) | MIC (Streptococcus pyogenes; [3]) | MIC (Enterococcus faecalis; [4]) | MIC (Enterococcus faecalis; [5]) | MIC (Enterococcus faecalis; [6]) | MIC (Staphylococcus aureus; [7]) | MIC (Staphylococcus aureus; [8]) | MIC (Staphylococcus aureus; [9]) | MIC (Staphylococcus aureus; [10]) | MIC (Staphylococcus aureus; [11]) | MIC (Staphylococcus aureus; [12]) | MIC (Staphylococcus aureus; [13]) | MIC (Staphylococcus aureus; [14]) | MIC (Staphylococcus aureus; [15]) | MIC (Staphylococcus aureus; [16]) | MIC (Staphylococcus aureus; [17]) | MIC (Escherichia coli; [18]) | MIC (Escherichia coli; [19]) | MIC (Escherichia coli; [20]) | MIC (Streptococcus pneumoniae; [21]) | Compound | also measured
– | – | – | – | – | – | – | – | – | – | – | – | – | – | – | – | – | – | – | – | Cc1c(CN(C)C(=O)/C=C/c2cnc3c(c2)CCC(=O)N3)oc2ccccc12 [Compound IV, (E)-N-methyl-N-((3-methylbenzofuran-2-yl)methyl)-3-(7-oxo-5,6,7,8-tetrahydro-1,8-naphthyridin-3-yl)acrylamide, reference compound] | solubility ([1]; 25 °C, thermodynamic from solid, read-out: Solubility in Water): < 1 µg/mL
>2 µg/mL | > 2 µg/mL | > 2 µg/mL | > 2 µg/mL | > 2 µg/mL | 0.004 µg/mL (≈ 0.0107 µM) | 0.004 µg/mL (≈ 0.0107 µM) | 0.03 µg/mL (≈ 0.0799 µM) | 0.004 µg/mL (≈ 0.0107 µM) | 0.015 µg/mL (≈ 0.04 µM) | 0.004 µg/mL (≈ 0.0107 µM) | 0.015 µg/mL (≈ 0.04 µM) | 0.004 µg/mL (≈ 0.0107 µM) | 0.004 µg/mL (≈ 0.0107 µM) | 0.004 µg/mL (≈ 0.0107 µM) | 0.03 µg/mL (≈ 0.0799 µM) | > 2 µg/mL | > 2 µg/mL | > 2 µg/mL | > 2 µg/mL | Cc1c(CN(C)C(=O)/C=C/c2cnc3c(c2)CCC(=O)N3)oc2ccccc12 [Compound Z, (E)-N-methyl-N-((3-methylbenzofuran-2-yl)methyl)-3-(7-oxo-5,6,7,8-tetrahydro-1,8-naphthyridin-3-yl)acrylamide] | –
1 µg/mL (≈ 2.96 µM) | 1 µg/mL (≈ 2.96 µM) | 1 µg/mL (≈ 2.96 µM) | 1 µg/mL (≈ 2.96 µM) | 1 µg/mL (≈ 2.96 µM) | 4 µg/mL (≈ 11.9 µM) | 2 µg/mL (≈ 5.93 µM) | 2 µg/mL (≈ 5.93 µM) | 2 µg/mL (≈ 5.93 µM) | 2 µg/mL (≈ 5.93 µM) | 2 µg/mL (≈ 5.93 µM) | 2 µg/mL (≈ 5.93 µM) | 4 µg/mL (≈ 11.9 µM) | 2 µg/mL (≈ 5.93 µM) | 2 µg/mL (≈ 5.93 µM) | 2 µg/mL (≈ 5.93 µM) | 64 µg/mL (≈ 190 µM) | > 64 µg/mL | 64 µg/mL (≈ 190 µM) | 1 µg/mL (≈ 2.96 µM) | CC(=O)NC[C@H]1CN(c2ccc(N3CCOCC3)c(F)c2)C(=O)O1 [Linezolid] | –
– | – | – | – | – | – | – | – | – | – | – | – | – | – | – | – | – | – | – | – | (E)-6-[(N-methyl-((3-methylbenzofuran-2-yl)methyl)amino)-3-oxoprop-1-en-1-yl)-2-oxo-3,4-dihydro-1,8-naphthyridin-1(2H)-yl]methylphosphate dipotassium salt [Bis-Potassium (amorphous) (Compound 11)] | Solubility in Water [1]: >100 mg/mL
– | – | – | – | – | – | – | – | – | – | – | – | – | – | – | – | – | – | – | – | (E)-6-[(N-methyl-((3-methylbenzofuran-2-yl)methyl)amino)-3-oxoprop-1-en-1-yl)-2-oxo-3,4-dihydro-1,8-naphthyridin-1(2H)-yl]methylphosphate dipotassium salt [Bis-Potassium (crystalline) (Compound 11)] | Solid-state stability % Area ([2]; 30° C./65% RH): 87.8 % Area; Solid-state stability % Area ([2]; 40° C./75% RH): 64.3 % Area; Solid-state stability % Area ([2]; 50° C./ambient humidity): 72.5 % Area; Solid-state stability % Area ([2]; 60° C./ambient humidity): 50.7 % Area; Solid-state stability % Area ([2]; Control (ambient lab conditions protected from light)): 95.4 % Area; Solubility in Water [1]: 30 to 35 mg/mL

Compound | MIC (Streptococcus pyogenes; S. pyogenes 6528) | MIC (Streptococcus pyogenes; [3]) | MIC (Enterococcus faecalis; [4]) | MIC (Enterococcus faecalis; [5]) | MIC (Enterococcus faecalis; [6]) | MIC (Staphylococcus aureus; [7]) | MIC (Staphylococcus aureus; [8]) | MIC (Staphylococcus aureus; [9]) | MIC (Staphylococcus aureus; [10]) | MIC (Staphylococcus aureus; [11]) | MIC (Staphylococcus aureus; [12]) | MIC (Staphylococcus aureus; [13]) | MIC (Staphylococcus aureus; [14]) | MIC (Staphylococcus aureus; [15]) | MIC (Staphylococcus aureus; [16]) | MIC (Staphylococcus aureus; [17]) | MIC (Escherichia coli; [18]) | MIC (Escherichia coli; [19]) | MIC (Escherichia coli; [20]) | MIC (Streptococcus pneumoniae; [21]) | also measured
CN[C@H](CC(C)C)C(=O)N[C@H]1C(=O)N[C@@H](CC(N)=O)C(=O)N[C@H]2C(=O)N[C@H]3C(=O)N[C@H](C(=O)N[C@H](C(=O)O)c4cc(O)cc(O)c4-c4cc3ccc4O)[C@H](O)c3ccc(c(Cl)c3)Oc3cc2cc(c3O[C@@H]2O[C@H](CO)[C@@H](O)[C@H](O)[C@H]2O[C@H]2C[C@](C)(N)[C@H](O)[C@H](C)O2)Oc2ccc(cc2Cl)[C@H]1O [Vancomycin] | 0.25 µg/mL (≈ 0.173 µM) | – | – | – | – | – | – | – | – | – | – | – | – | – | – | – | – | – | – | – | MIC (Streptococcus pyogenes; Streptococcus pyogenes): 0.25 µg/mL (≈ 0.173 µM); MIC (Enterococcus faecalis; ATCC29212, E. faecalis ATCC 29212): 1 µg/mL (≈ 0.69 µM); MIC (Enterococcus faecalis; E. faecalis 4158, VSE): > 64 µg/mL; MIC (Enterococcus faecalis; E. faecalis 4212, VSE): 16 µg/mL (≈ 11 µM); MIC (Staphylococcus aureus; ATCC29213, S. aureus ATCC 29213): 0.5 µg/mL (≈ 0.345 µM); MIC (Staphylococcus aureus; MRSA, S. aureus 3083, HA-MRSA): 0.5 µg/mL (≈ 0.345 µM); MIC (Staphylococcus aureus; MRSA, S. aureus 3086, HA-MRSA): 1 µg/mL (≈ 0.69 µM); MIC (Staphylococcus aureus; MRSA, S. aureus 3265, HA-MRSA): 0.5 µg/mL (≈ 0.345 µM); MIC (Staphylococcus aureus; MSSA, S. aureus 3104): 0.5 µg/mL (≈ 0.345 µM); MIC (Staphylococcus aureus; MSSA, S. aureus 3107): 0.5 µg/mL (≈ 0.345 µM); MIC (Staphylococcus aureus; MSSA, S. aureus 3245): 0.5 µg/mL (≈ 0.345 µM); MIC (Staphylococcus aureus; MSSA, S. aureus 3250): 0.5 µg/mL (≈ 0.345 µM); MIC (Staphylococcus aureus; MSSA, S. aureus 3856): 1 µg/mL (≈ 0.69 µM); MIC (Staphylococcus aureus; S. aureus 2168, CAMRSA): 1 µg/mL (≈ 0.69 µM); MIC (Staphylococcus aureus; S. aureus 2294, CAMRSA): 1 µg/mL (≈ 0.69 µM); MIC (Escherichia coli; E. coli 5255): >64 µg/mL; MIC (Escherichia coli; Escherichia coli): > 64 µg/mL; MIC (Escherichia coli; Escherichia coli, ATCC25922): > 64 µg/mL; MIC (Streptococcus pneumoniae; ATCC49619): 0.12 µg/mL (≈ 0.0828 µM)
